ChEMBL document CHEMBL5723035, “Affinity Biochemical Literature for EUbOPEN Chemogenomic Library” (2024)
Blank lines part the entries; values can stand above or below the molecule they belong to. Non-standard residues stand in square brackets, D forms with d. Residues, ends and D or L forms follow the SMILES beside them. *: point of attachment. Benzoyl(4-OPh) = O=C(c1ccc(Oc2ccccc2)cc1)*; Lys(Et2) = CCN(CC)CCCC[C@H](N)C(=O)O; d(aIle) = CC[C@H](C)[C@@H](N)C(=O)O; Gly(cPent) = N[C@H](C(=O)O)C1CCCC1; NH(propargyl) = C#CCN*

Key:
Set-up in all cases: mode of action Inhibitor, recommended concentration 1 uM
[1] = target: T1, 3',5'-cyclic-AMP phosphodiesterase 4D (Homo sapiens, UniProt Q08499); experiment: Affinity Biochemical interaction: ([…]) EUB0002544a PDE4D; assay type: cell-free
T1 sequence (Q08499 whole entry): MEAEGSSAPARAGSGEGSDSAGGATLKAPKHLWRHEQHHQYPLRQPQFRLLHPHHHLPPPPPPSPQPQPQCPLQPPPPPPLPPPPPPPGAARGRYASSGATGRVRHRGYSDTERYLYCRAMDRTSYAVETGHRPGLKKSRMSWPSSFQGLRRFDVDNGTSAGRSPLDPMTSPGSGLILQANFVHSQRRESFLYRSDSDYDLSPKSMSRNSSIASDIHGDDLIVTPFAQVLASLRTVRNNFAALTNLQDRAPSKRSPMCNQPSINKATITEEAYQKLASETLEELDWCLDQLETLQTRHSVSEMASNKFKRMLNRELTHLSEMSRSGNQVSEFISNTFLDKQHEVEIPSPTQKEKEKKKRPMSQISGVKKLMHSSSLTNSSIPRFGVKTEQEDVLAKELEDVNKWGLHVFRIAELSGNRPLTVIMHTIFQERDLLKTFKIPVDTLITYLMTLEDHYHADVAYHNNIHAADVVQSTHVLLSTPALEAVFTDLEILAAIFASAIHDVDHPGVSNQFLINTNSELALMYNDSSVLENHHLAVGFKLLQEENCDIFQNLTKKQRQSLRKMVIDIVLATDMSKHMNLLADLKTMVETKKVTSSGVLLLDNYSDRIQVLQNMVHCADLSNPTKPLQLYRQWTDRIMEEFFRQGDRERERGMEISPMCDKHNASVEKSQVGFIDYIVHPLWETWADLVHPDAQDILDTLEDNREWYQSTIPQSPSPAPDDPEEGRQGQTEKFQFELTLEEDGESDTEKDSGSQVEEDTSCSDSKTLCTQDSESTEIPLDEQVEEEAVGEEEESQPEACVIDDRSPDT

[2] = target: T2, Nucleotide triphosphate diphosphatase NUDT15 (Homo sapiens, UniProt Q9NV35); experiment: Affinity Biochemical interaction: (enzyme-coupled MG (Malachite Green) assay with 6-thio-dGTP) EUB0002330a NUDT15; assay type: functional
T2 sequence (Q9NV35 whole entry): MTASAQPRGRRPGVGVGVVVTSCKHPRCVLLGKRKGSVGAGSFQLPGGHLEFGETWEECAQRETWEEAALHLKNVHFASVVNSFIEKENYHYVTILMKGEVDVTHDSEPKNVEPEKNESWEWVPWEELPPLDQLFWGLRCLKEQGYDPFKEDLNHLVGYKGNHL

[3] = target: T2, Nucleotide triphosphate diphosphatase NUDT15; experiment: Affinity Biochemical interaction: (enzyme-coupled MG (Malachite Green) assay with […]) EUB0002330a NUDT15; assay type: functional
[4] = target: T3, 3',5'-cyclic-AMP phosphodiesterase 4C (Homo sapiens, UniProt Q08493); experiment: Affinity Biochemical interaction: (radioligand binding assay, inhibition of [3H]cAMP or [3H]cGMP cleavage) EUB0002534a PDE4C
T3 sequence (Q08493 whole entry): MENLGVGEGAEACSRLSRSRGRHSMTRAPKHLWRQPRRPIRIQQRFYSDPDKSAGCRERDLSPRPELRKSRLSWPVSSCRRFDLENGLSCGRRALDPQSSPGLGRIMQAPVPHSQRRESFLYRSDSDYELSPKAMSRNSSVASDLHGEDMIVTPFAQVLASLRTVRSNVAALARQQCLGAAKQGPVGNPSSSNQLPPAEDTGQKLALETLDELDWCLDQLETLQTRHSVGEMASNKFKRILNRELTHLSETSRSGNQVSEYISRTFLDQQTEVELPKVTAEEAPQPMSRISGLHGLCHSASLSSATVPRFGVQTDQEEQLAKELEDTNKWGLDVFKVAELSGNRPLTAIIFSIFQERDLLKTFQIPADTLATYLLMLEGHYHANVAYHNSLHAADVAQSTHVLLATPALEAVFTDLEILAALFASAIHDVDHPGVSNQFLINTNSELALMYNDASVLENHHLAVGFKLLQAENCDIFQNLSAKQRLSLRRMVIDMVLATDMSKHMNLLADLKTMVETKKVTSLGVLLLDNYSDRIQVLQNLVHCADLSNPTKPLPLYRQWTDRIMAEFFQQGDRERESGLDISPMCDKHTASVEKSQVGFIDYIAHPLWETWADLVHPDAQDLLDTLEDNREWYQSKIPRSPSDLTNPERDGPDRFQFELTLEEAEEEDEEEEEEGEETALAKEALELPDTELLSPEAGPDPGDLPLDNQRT

[5] = target: T1, 3',5'-cyclic-AMP phosphodiesterase 4D; experiment: Affinity Biochemical interaction: (radioligand binding assay, inhibition of [3H]cAMP or [3H]cGMP cleavage) EUB0002534a PDE4D
[6] = target: T4, 3',5'-cyclic-AMP phosphodiesterase 4B (Homo sapiens, UniProt Q07343); experiment: Affinity Biochemical interaction: (radioligand binding assay, inhibition of [3H]cAMP or [3H]cGMP cleavage) EUB0002534a PDE4B
T4 sequence (Q07343 whole entry): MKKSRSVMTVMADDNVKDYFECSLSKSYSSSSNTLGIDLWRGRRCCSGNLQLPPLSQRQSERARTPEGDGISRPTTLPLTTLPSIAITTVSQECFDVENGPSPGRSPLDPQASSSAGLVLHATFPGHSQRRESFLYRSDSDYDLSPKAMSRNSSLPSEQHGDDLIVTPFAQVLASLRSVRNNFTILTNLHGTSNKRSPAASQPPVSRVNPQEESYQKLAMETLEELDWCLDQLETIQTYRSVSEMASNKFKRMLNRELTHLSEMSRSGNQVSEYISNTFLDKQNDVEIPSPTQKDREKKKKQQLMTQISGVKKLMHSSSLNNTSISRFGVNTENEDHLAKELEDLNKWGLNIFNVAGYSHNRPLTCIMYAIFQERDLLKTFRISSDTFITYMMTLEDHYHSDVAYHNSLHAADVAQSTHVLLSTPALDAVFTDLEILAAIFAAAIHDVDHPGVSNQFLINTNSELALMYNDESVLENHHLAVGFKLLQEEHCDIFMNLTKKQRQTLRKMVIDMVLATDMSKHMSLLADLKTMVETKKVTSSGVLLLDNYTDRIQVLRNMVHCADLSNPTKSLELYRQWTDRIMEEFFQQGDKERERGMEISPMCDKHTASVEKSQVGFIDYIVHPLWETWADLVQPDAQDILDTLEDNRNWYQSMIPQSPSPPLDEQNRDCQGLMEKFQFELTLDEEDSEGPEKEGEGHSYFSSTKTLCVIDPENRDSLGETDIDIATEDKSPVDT

[7] = target: T5, 3',5'-cyclic-AMP phosphodiesterase 4A (Homo sapiens, UniProt P27815); experiment: Affinity Biochemical interaction: (radioligand binding assay, inhibition of [3H]cAMP or [3H]cGMP cleavage) EUB0002534a PDE4A
[8] = target: T4, 3',5'-cyclic-AMP phosphodiesterase 4B; experiment: Affinity Biochemical interaction: (Inhibition of enzyme activity, scintillation proximity assay with radiolabelled [3H]cAMP) EUB0002694a PDE4B; assay type: functional
Histone deacetylase 2 = Histone deacetylase 2 (Homo sapiens, UniProt Q92769); experiment: Affinity Biochemical interaction: (fluorometric activity assay) EUB0002519a HDAC2; assay type: functional
Histone deacetylase 1 = Histone deacetylase 1 (Homo sapiens, UniProt Q13547); experiment: Affinity Biochemical interaction: (fluorometric activity assay) EUB0002519a HDAC1; assay type: functional
[9] = target: NAD-dependent protein deacetylase sirtuin-7 (Homo sapiens, UniProt Q9NRC8); experiment: Affinity Biochemical interaction: (inhibition of deacetylase activity, luminescence measurement using the SIRT7 assay kit) EUB0002717a SIRT7; assay type: functional
Adenosine kinase = Adenosine kinase (Homo sapiens, UniProt P55263); experiment: Affinity Biochemical interaction: (radiochemical assay, inhibition of AK activity in cell supernatants) EUB0002485aCl ADK; assay type: functional, subcellular
[10] = target: T5, 3',5'-cyclic-AMP phosphodiesterase 4A; experiment: Affinity Biochemical interaction: (fluorescence polarisation assay, inhibition of enzyme activity) EUB0002577a PDE4A; assay type: functional
[11] = target: T3, 3',5'-cyclic-AMP phosphodiesterase 4C; experiment: Affinity Biochemical interaction: (fluorescence polarisation assay, inhibition of enzyme activity) EUB0002577a PDE4C; assay type: functional
[12] = target: Lysine-specific demethylase 4B (Homo sapiens, UniProt O94953); experiment: Affinity Biochemical interaction: (AlphaScreen) EUB0002543a KDM4B; assay type: functional
[13] = target: T6, Lysine-specific demethylase 4A (Homo sapiens, UniProt O75164); experiment: Affinity Biochemical interaction: (AlphaScreen) EUB0002543a KDM4A; assay type: functional
T6 sequence (O75164 whole entry): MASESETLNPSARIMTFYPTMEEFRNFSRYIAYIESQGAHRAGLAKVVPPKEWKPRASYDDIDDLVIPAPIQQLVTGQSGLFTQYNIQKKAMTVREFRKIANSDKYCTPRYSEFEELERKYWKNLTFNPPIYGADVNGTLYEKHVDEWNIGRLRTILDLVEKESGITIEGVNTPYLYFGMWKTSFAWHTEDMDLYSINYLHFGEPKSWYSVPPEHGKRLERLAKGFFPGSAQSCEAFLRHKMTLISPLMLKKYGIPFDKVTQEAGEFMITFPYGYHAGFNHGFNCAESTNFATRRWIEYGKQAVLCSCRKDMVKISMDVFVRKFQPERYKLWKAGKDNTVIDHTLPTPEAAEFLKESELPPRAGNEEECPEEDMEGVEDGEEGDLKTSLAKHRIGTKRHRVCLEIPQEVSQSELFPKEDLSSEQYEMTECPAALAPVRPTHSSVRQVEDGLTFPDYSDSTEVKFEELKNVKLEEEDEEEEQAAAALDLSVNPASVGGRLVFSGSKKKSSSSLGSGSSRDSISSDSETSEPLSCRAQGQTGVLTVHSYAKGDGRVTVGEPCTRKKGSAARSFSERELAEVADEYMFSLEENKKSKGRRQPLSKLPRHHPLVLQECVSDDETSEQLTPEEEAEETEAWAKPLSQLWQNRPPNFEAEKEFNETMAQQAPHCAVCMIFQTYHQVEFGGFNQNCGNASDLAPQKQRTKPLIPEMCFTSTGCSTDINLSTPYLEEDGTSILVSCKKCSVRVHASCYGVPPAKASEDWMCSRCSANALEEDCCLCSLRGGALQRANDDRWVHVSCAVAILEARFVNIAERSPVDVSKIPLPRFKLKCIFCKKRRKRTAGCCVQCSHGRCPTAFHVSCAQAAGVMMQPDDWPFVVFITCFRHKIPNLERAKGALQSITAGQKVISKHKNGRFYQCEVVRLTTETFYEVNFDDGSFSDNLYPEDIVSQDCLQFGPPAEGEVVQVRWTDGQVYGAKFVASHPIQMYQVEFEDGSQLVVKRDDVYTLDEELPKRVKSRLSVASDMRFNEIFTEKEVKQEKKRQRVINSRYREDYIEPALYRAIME

[14] = target: Lysine-specific demethylase 4C (Homo sapiens, UniProt Q9H3R0); experiment: Affinity Biochemical interaction: (AlphaScreen) EUB0002543a KDM4C; assay type: functional
[15] = target: T6, Lysine-specific demethylase 4A; experiment: Affinity Biochemical interaction: (Biolayer interferometry) EUB0002543a KDM4A
[16] = target: T7, cAMP and cAMP-inhibited cGMP 3',5'-cyclic phosphodiesterase 10A (Homo sapiens, UniProt Q9Y233); experiment: Affinity Biochemical interaction: (inhibition of enzyme activity in cleaving radiolabelled substrate [3H]cAMP) EUB0002682aCl PDE10A; assay type: functional
T7 sequence (Q9Y233 whole entry): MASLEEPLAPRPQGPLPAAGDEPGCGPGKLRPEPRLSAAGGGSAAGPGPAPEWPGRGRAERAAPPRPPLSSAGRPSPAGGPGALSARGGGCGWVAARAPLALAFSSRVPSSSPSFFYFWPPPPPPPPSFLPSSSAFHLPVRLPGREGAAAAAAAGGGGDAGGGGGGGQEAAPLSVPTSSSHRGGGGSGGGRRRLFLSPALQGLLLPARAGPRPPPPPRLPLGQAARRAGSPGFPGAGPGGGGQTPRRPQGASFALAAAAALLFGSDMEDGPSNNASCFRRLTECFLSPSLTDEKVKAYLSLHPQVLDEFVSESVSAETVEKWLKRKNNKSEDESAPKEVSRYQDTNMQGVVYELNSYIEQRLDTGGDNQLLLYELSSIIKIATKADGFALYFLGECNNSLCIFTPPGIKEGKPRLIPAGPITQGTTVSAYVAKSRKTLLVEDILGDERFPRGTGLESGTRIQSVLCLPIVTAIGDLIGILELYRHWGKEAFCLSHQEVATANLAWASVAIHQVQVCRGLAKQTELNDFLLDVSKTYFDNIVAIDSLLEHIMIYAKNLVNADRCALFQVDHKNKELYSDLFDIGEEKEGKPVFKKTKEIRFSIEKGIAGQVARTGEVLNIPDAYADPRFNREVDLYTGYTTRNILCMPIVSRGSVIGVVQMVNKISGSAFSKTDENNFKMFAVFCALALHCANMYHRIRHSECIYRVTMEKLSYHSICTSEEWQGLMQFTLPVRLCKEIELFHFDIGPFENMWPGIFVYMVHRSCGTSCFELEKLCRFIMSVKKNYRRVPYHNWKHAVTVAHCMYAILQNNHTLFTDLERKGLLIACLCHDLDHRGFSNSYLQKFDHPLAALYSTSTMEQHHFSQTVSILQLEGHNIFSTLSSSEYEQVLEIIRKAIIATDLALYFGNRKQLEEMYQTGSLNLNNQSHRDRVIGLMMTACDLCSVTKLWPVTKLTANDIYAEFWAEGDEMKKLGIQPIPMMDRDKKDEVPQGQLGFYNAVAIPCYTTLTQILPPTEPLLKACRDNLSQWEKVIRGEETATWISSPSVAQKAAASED

[17] = target: High affinity cAMP-specific and IBMX-insensitive 3',5'-cyclic phosphodiesterase 8A (Homo sapiens, UniProt O60658); experiment: Affinity Biochemical interaction: (inhibition of enzyme activity with [3H]cGMP or [3H]cAMP as the substrate) EUB0002477a PDE8A; assay type: functional
[18] = target: T1, 3',5'-cyclic-AMP phosphodiesterase 4D; experiment: Affinity Biochemical interaction: (inhibition of enzyme activity with [3H]cGMP or [3H]cAMP as the substrate) EUB0002477a PDE4D; assay type: functional
[19] = target: cGMP-dependent 3',5'-cyclic phosphodiesterase (Homo sapiens, UniProt O00408); experiment: Affinity Biochemical interaction: (inhibition of enzyme activity with [3H]cGMP or [3H]cAMP as the substrate) EUB0002477a PDE2A; assay type: functional
[20] = target: T7, cAMP and cAMP-inhibited cGMP 3',5'-cyclic phosphodiesterase 10A; experiment: Affinity Biochemical interaction: (inhibition of enzyme activity with [3H]cGMP or [3H]cAMP as the substrate) EUB0002477a PDE10A; assay type: functional
[21] = target: High affinity 3',5'-cyclic-AMP phosphodiesterase 7A (Homo sapiens, UniProt Q13946); experiment: Affinity Biochemical interaction: (inhibition of enzyme activity with [3H]cGMP or [3H]cAMP as the substrate) EUB0002477a PDE7A; assay type: functional
Chain of High affinity 3',5'-cyclic-AMP phosphodiesterase 7A (Q13946 whole entry): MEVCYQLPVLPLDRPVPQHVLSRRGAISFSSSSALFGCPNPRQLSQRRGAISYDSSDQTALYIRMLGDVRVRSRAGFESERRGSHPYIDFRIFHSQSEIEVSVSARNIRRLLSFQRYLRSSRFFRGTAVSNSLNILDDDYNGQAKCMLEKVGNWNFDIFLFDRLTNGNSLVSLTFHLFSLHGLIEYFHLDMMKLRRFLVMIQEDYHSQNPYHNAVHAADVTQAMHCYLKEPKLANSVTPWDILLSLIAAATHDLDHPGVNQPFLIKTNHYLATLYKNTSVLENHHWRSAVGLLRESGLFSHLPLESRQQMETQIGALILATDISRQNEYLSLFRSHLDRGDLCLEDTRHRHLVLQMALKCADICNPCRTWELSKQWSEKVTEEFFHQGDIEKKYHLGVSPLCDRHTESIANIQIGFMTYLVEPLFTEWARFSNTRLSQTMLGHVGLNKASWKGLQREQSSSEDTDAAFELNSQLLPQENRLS

[22] = target: Dual specificity calcium/calmodulin-dependent 3',5'-cyclic nucleotide phosphodiesterase 1A (Homo sapiens, UniProt P54750); experiment: Affinity Biochemical interaction: (inhibition of [3H]cGMP cleavage, scintillation proximity assay) EUB0002562a PDE1A; assay type: functional
[23] = target: Synaptic vesicular amine transporter (Homo sapiens, UniProt Q05940); experiment: Affinity Biochemical interaction: (Inhibition of radiolabelled [3H]dopamine uptake) EUB0002590aCl SLC18A2
[24] = target: T8, Chromobox protein homolog 8 (Homo sapiens, UniProt Q9HC52); experiment: Affinity Biochemical interaction: (Thermal Shift Assay) EUB0002326a CBX8
T8 sequence (Q9HC52 whole entry): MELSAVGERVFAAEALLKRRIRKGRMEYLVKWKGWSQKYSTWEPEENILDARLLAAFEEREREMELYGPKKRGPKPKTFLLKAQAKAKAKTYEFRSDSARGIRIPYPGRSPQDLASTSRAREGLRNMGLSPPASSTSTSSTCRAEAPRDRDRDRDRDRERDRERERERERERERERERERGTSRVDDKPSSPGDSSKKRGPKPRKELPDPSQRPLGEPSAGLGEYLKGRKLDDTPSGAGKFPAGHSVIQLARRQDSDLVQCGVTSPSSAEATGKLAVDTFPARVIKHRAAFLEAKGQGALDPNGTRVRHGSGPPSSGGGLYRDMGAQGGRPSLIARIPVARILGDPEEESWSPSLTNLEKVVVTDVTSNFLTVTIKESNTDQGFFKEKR

[25] = target: T8, Chromobox protein homolog 8; experiment: Affinity Biochemical interaction: (Fluorescence polarisation (fluorescein conjugated)) EUB0002326a CBX8; assay type: functional
[26] = target: T8, Chromobox protein homolog 8; experiment: Affinity Biochemical interaction: (MST (fluorescein-conjugated)) EUB0002326a CBX8

Compound: O=C(c1ccc2[nH]ccc2c1)N1CCN(S(=O)(=O)c2ccc3[nH]c(=O)oc3c2)CC1
IC50 [2]: 57 nM
IC50 [3]: 25 nM

Compound: Nc1cc2c3c(c1)C(c1ccccc1)=N[C@@H](NC(=O)c1cccnc1)C(=O)N3CC2
IC50 [4]: 560 nM
IC50 [5]: 90 nM
IC50 [6]: 80 nM
IC50 [7]: 290 nM

Compound: N#Cc1ccc(-c2c3n(c4cccnc24)CCN(C2CC2)C3=O)cc1F [PF-06445974]
IC50 [8]: < 1 nM

Compound: Nc1ccc(-c2cccs2)cc1NC(=O)c1ccc(NC=O)cc1
IC50 (Histone deacetylase 2): 100 nM
IC50 (Histone deacetylase 1): 40 nM

Compound: Nc1cccc(Nc2ncc(-c3ccc(Cl)cc3)o2)c1
IC50 [9]: 325 nM

Compound: Cn1c(OC[C@H]2CC[C@H](C(F)(F)F)CC2)nn2c(C3CCOCC3)ncc2c1=O
IC50 [22]: 97.6 nM

Compound: C#CCNC(=O)[C@H](CO)NC(=O)[C@H](CCCCN(CC)CC)NC(=O)[C@H](NC(=O)[C@@H](NC(=O)c1ccc(Oc2ccccc2)cc1)C1CCCC1)[C@@H](C)CC ({Benzoyl(4-OPh)}-[Gly(cPent)][d(aIle)][Lys(Et2)]S-{NH(propargyl)})
Kd [24]: 500 nM
Kd [25]: 800 nM
Kd [26]: 700 nM

The remaining lines, values ahead:

IC50 [1]: 37 nM
Compound: C[C@@H](Oc1ccc(CNC(=O)c2cccnc2Oc2ccc3c(c2)OCO3)c(F)c1)C(=O)O

IC50 (Adenosine kinase): 3 nM
Compound: Nc1ncnc2nc(-c3ccc(N4CCOCC4)nc3)cc(-c3cccc(Br)c3)c12

IC50 [10]: 113 nM
IC50 [11]: 164 nM
Compound: CC(C)NC(=O)c1ccc(OC(F)F)c(OCC2CC2)c1

IC50 [12]: 33 nM
IC50 [13]: 42 nM
IC50 [14]: 39 nM
Kd [15]: 29.8 nM
Compound: CC(C)[C@@H]1NC(=O)[C@H](Cc2ccc(O)cc2)NC(=O)[C@@H](CC(=O)O)NC(=O)S[C@@H](C(=O)O)NC(=O)[C@H]([C@H](C)O)NC(=O)[C@H](Cc2ccc(O)cc2)NC(=O)[C@H](Cc2c[nH]c3ccccc23)NC(=O)[C@H](CCCNC(=N)N)NC(=O)[C@H](Cc2c[nH]c3ccccc23)NC(=O)[C@H](C)NC(=O)[C@H](CO)NC(=O)[C@H](CCCNC(=N)N)NC(=O)[C@H]([C@H](C)O)NC(=O)[C@H](CC(N)=O)NC(=O)[C@H](Cc2ccc(O)cc2)NC1=O

IC50 [16]: 2.8 nM
Compound: Cc1ccc2c(c1)nc(/C=C/c1cccc3cccnc13)n2-c1cccc(OCCCN2CCN(C)CC2)c1

IC50 [17]: 1 nM
IC50 [18]: 1.3 nM
IC50 [19]: 2.4 nM
IC50 [20]: 2.3 nM
IC50 [21]: 2.5 nM
Compound: C[C@H](Nc1nc2c(cnn2C2CCCC2)c(=O)[nH]1)c1ccc(Cl)cc1

Ki [23]: 29 nM
Compound: COc1ccc(CC[C@H]2CCC[C@@H](CCc3ccc(OC)cc3)N2C[C@@H](O)CO)cc1
